Results published in BigSolDB 2.1.

CCOC(=O)C1(c2ccccc2)CCN(CCC(C#N)(c2ccccc2)c2ccccc2)CC1
solubility (mole fraction)
Conditions	278.15 K	283.15 K	288.15 K	293.15 K	298.15 K	303.15 K	308.15 K	313.15 K	318.15 K
in acetonitrile	0.00208	0.00256	0.0033	0.00386	0.00492	0.0059	0.00738	0.00941	0.0126
in ethanol	0.000882	0.00109	0.00127	0.00154	0.00193	0.00227	0.00277	0.0034	0.00432
in isopropanol	0.000106	0.000155	0.000208	0.000274	0.000421	0.000601	0.000838	0.00114	0.00156
in methanol	0.00341	0.00419	0.00501	0.0063	0.00759	0.00952	0.0118	0.0147	0.0186
in water	4.09e-06	5.3e-06	6.84e-06	9.18e-06	1.14e-05	1.48e-05	1.91e-05	2.54e-05	3.28e-05
